In PMC9598926, “Design and Synthesis of (Z)-5-(Substituted benzylidene)-3-cyclohexyl-2-thioxothiazolidin-4-one Analogues as Anti-Tyrosinase and Antioxidant Compounds: In Vitro and In Silico Insights” (Antioxidants, 2022):

Tests used:
[1] = ABTS cation radical scavenging activity assay; conditions: test sample 100 µM, 2 min in the dark
Protocol: 2.12. ABTS Cation Radical Scavenging Activity Assay
The free radical scavenging activities of analogs 1–8 and Trolox were determined using an ABTS radical cation decolorization assay (SEJIN CI Co., Seoul, Korea), as previously described with minor modification. Trolox was used as the positive control. ABTS radicals were produced by adding 10 mL of 7 mM ABTS in distilled water to 10 mL of 2.45 mM aqueous potassium persulfate solution. The mixture was kept in the dark for 12–16 h at RT until the reaction was complete and absorbance had stabilized. The prepared free radical solution was then diluted with methyl alcohol so that the optical density at 734 nm was 0.70 ± 0.02. Test samples (10 µL, final concentration at 100 µM) dissolved in EtOH/DMSO (9:1 v/v) were added to the diluted free radical solution (90 µL) in a 96-well plate. After standing at RT for 2 min in the dark, well absorbances were measured at 734 nm, and ABTS radical scavenging activities were calculated using the following formula:ABTS free radical scavenging activity (%) = (Ac − As) × 100/Ac(2) where Ac indicates the absorbance of the non-treated control, and As indicates the absorbances of test samples. Experiments were conducted independently 3 times.
The ABTS (2,2′-azino-bis(3-ethylbenzothiazoline-6-sulfonic acid)) cation radical scavenging assay is also commonly used to evaluate antioxidant effects. ABTS is converted to the ABTS radical cation by the transfer of one electron to potassium persulfate. Trolox was used as the positive control, and assays were performed at a test sample (analogs 1–8 and Trolox) concentration of 100 µM. The ABTS radical solution obtained by a reaction of ABTS with potassium persulfate was mixed with test samples and left in the dark for 2 min. ABTS radical scavenging abilities were evaluated by measuring absorbances at 734 nm. […] On the other hand, analog 1 with a 4-hydroxyphenyl group, and analogs 7 and 8 with bromo substituents on the β-phenyl ring weakly scavenged the ABTS radical (16.6–24.8% scavenging). […] Furthermore, the results for ABTS and DPPH radical scavenging activities were similar.

[2] = test system: mushroom tyrosinase; experiment: Mushroom tyrosinase activity assay (L-tyrosine as substrate); assay type: biochemical; conditions: for tyrosinase inhibition relative to kojic acid: fold more than kojic acid; for IC50: mushroom tyrosinase, means ± SEMs of triplicate determinations; for enhancement of tyrosinase inhibitory activity relative to analog 1: versus analog 1
Protocol: 2.2. […] In brief, 20 µL of an aqueous mushroom tyrosinase solution (1000 units/mL) and 170 µL of a substrate mixture containing 345 µM of L-tyrosine and 17.2 mM of sodium phosphate buffer (pH 6.5) were added to wells of a 96-well microplate. […] Amounts of dopachrome produced were assessed by measuring optical densities at 475 nm using a microplate reader (VersaMax®, Molecular Devices, Sunnyvale, CA, USA). […] Experiments were independently conducted three times.

[3] = Peroxynitrite (ONOO−) scavenging activity assay (DHR 123, SIN-1); conditions: SIN–1 10 µM; 5, 10, 20 µM
Protocol: 2.14. Peroxynitrite (ONOO^−) Scavenging Activity Assay
Peroxynitrite-scavenging activities were determined as described by Kooy et al. with modification. This method monitors the fluorescence of rhodamine 123, which is formed rapidly when non-fluorescent DHR 123 (dihydrorhodamine 123) (Molecular Probes, Eugene, OR, USA) in the presence of peroxynitrite. The rhodamine buffer solution (pH 7.4) included of 50 mM sodium phosphate, 90 mM sodium chloride, 5 mM potassium chloride, and 100 µM DTPA. The final concentration of DHR 123 was 5 µM. In this assay, the buffer solution was prepared prior to use and then stood on ice. Test compounds (10 µL, final concentrations: 5, 10, and 20 µM) dissolved in DMSO and added to 10 µL SIN-1 (10 µM) and 180 µL rhodamine buffer solution in the wells of a black 96-well plate. Fluorescence intensities of oxidized DHR 123 were measured using a fluorescence plate reader (Berthold Advances GmbH & Co., Bad Wildbad, Germany) with an excitation and emission wavelengths of 485 and 535 nm, respectively. Peroxynitrite scavenging activity was calculated after subtracting background fluorescence from final fluorescence intensity. Results are expressed as means ± standard deviation (SD), and L-penicillamine was used as a positive control.
Several RNS (reactive nitrogen species), including peroxynitrite (ONOO^–) and nitric oxide, are known to be involved in the induction of the melanogenesis. Therefore, we investigated the effects of analogs 1–8 on peroxynitrite scavenging activity using DHR123 (dihydrorhodamine) as a ROS indicator and SIN–1 as an RNS generator. Peroxynitrite generated by SIN–1 oxidizes DHR123 to rhodamine 123, a fluorescent compound. Thus, the effects of analogs on peroxynitrite scavenging ability were determined by measuring rhodamine 123 fluorescence.

Row | Compound | ABTS radical scavenging activity [1] [%] | tyrosinase inhibition relative to kojic acid [2] [fold] | IC50 [2] [µM] | enhancement of tyrosinase inhibitory activity relative to analog 1 [2] [fold] | peroxynitrite scavenging compared with penicillamine [3]
1 | O=C1/C(=C/c2ccc(O)c(O)c2)SC(=S)N1C1CCCCC1 [Analog 2, (Z)-3-Cyclohexyl-5-(3,4-dihydroxybenzylidene)-2-thioxothiazolidin-4-one] | 81.0 | 5 | 5.21 ± 0.86 | 13 | much more potently than penicillamine
2 | O=C1/C(=C/c2ccc(O)cc2O)SC(=S)N1C1CCCCC1 [Analog 3, (Z)-3-Cyclohexyl-5-(2,4-dihydroxybenzylidene)-2-thioxothiazolidin-4-one] | 72.1 | 25 | 1.03 ± 0.14 | 63 | much more potently than penicillamine
